These results are taken from patent publication US20230365592A1 (Agios Pharmaceuticals, Inc., priority 2022, published 2023).

Bounds are passed on as bounds.

As a reminder, the AC50 is the midpoint of the concentration-response curve, whichever way the signal moves.

This test concerns the target T1, human PAH with the R408W mutation (Homo sapiens, UniProt P00439, R408W).
T1 construct: expressed in transfected cells
T1 sequence (P00439 1-452 R408W): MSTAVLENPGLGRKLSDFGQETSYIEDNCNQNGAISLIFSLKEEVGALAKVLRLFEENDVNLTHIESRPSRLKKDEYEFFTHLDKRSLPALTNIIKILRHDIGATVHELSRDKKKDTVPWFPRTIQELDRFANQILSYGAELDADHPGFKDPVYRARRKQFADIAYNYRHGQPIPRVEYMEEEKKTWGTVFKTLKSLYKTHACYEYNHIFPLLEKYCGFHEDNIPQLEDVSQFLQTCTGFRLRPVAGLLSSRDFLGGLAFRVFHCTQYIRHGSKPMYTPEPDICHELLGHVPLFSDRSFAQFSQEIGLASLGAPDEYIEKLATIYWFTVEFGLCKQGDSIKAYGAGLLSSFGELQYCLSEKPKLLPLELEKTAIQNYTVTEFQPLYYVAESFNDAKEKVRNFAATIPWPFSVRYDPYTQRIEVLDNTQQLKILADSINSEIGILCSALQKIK
As to the kind of experiment: Cell Based Phenylalanine Flux Assay.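 Note: after compound treatment, cells received sepiapterin plus isotope-labelled Phenylalanine for 4 hours, then labelled Tyrosine in the medium was quantified, 10-point 2-fold dilution series run in duplicate.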 The settings on record: A375 cells expressing R408W PAH; 24 hrs with compound, then 20 µM sepiapterin and 800 µM 13C9,15N-Phenylalanine for 4 hours; 13C-Tyrosine by LC-MS; average where tested multiple times; read-out: AC50.

Experimental: Compounds were resuspended in DMSO, and 2-fold serial dilutions were performed to generate a 10-point dose curve. Compounds were added to plated cells in a total volume of 100 µl, and a final DMSO concentration of 0.5%. Each compound was tested in duplicate. Following compound addition, cells were placed in a 5% CO2, 37° C. tissue culture incubator for 24 hrs. After the incubation period, 20 µM sepiapterin and 800 µM 13C9,15N-Phenylalanine were added. After 4 hours, cell media was removed. An aliquot of 10 µl of cell media was combined with 200 µl of extraction buffer (80% acetonitrile/20% H2O) for each well. Determination of ^13C-Tyrosine concentration was assessed by liquid chromatography mass spectrometry.
Where a compound was tested multiple times, the average value of the tests is reported.

`O=C(c1nnc(-c2cc[nH]n2)o1)N1CCc2[nH]cnc2C1c1cc2ccccn2n1` (stereo not drawn): the AC50 was > 5 µM. Then `CC(C)(F)c1nnc(C(=O)N2CCc3[nH]cnc3C2c2cc3ccccn3n2)o1` (stereo not drawn), with 1 to 5 µM. `Fc1cccnc1-c1nnc(N2CCc3[nH]cnc3C2c2cc3c(C4CC4)cccn3n2)o1` (stereo not drawn) [listing 1 of 2 here]: the concentration at half-maximal activity (AC50) was > 5 µM. With `Cc1cccc2cc(C3c4nc[nH]c4CCN3c3nnc(-c4cnccn4)o3)nn12` (stereo not drawn) [listing 1 of 2 here], the AC50 is > 5 µM. Then `O=C(c1cnc(-c2cnccn2)o1)N1CCc2[nH]cnc2C1c1cc2ccccn2n1` (stereo not drawn), with > 5 µM; and `O=C(c1cnc(-c2ccccn2)o1)N1CCc2[nH]cnc2C1c1cc2ccccn2n1` (stereo not drawn) [listing 1 of 2 here], with > 5 µM; and `Fc1ncccc1-c1nnc(N2CCc3[nH]cnc3C2c2cc3ccccn3n2)o1` (stereo not drawn) [listing 1 of 2 here], with > 5 µM.

Consider `Cc1nnc(C(=O)N2CCc3[nH]cnc3C2c2cc3ccccn3n2)o1` (stereo not drawn) [listing 1 of 2 here], for which the AC50 was > 5 µM.

For the molecule `Fc1ncccc1-c1nnc(N2CCc3[nH]cnc3C2c2cc3c(C(F)F)cccn3n2)o1` (stereo not drawn) [listing 1 of 2 here], the AC50 is > 5 µM. Regarding `Cc1ncccc1-c1nnc(N2CCc3[nH]cnc3C2c2cc3c(C4CC4)cccn3n2)o1` (stereo not drawn), the AC50 was 1 to 5 µM. Then `Fc1ncccc1-c1nnc(N2CCc3[nH]cnc3C2c2cc3c(C4CC4)cccn3n2)o1` (stereo not drawn) [listing 1 of 2 here], with > 5 µM. Under `c1cncc(-c2nnc(N3CCc4[nH]cnc4C3c3cc4c(C5CC5)cccn4n3)o2)c1` (stereo not drawn) [listing 1 of 2 here] stands > 5 µM.

In the case of `O=C(c1cn[nH]c1Cl)N1CCc2[nH]cnc2C1c1cc2ccccn2n1` (stereo not drawn) [listing 1 of 2 here], the AC50 was 1 to 5 µM.

`Cc1cccn2nc(C3c4nc[nH]c4CCN3C(=O)c3ccnn3C(F)F)cc12` (stereo not drawn): the AC50 was in the range of 1 to 5 µM. Turning to `Cn1ccc(C(=O)N2CCc3[nH]cnc3C2c2cc3ccccn3n2)n1` (stereo not drawn), the AC50 was > 5 µM.

In the case of `Cc1cccn2nc(C3c4nc[nH]c4CCN3c3cnn(C)c3)cc12` (stereo not drawn), the AC50 fell in the range of 1 to 5 µM. Then `Cn1nc(N)cc1C(=O)N1CCc2[nH]cnc2C1c1cc2ccccn2n1` (stereo not drawn), with > 5 µM; and `O=C(c1nnc(-c2cnn(CC(F)F)c2)o1)N1CCc2[nH]cnc2C1c1cc2ccccn2n1` (stereo not drawn), with 1 to 5 µM.

Turning to `CC(F)(F)c1nnc(N2CCc3[nH]cnc3C2c2cc3cccc(C(F)(F)F)n3n2)o1` (stereo not drawn), the AC50 lay within 1 to 5 µM. Under `CC(C)c1cccn2nc(C3c4nc[nH]c4CCN3c3nnc(C(C)(C)F)o3)cc12` (stereo not drawn) stands 1 to 5 µM. As to `CC(C)(F)c1nnc(N2CCc3[nH]cnc3C2c2cc3c(F)cccn3n2)o1` (stereo not drawn), the AC50 was in the range of 1 to 5 µM.

With `CC(C)(F)c1nnc(N2CCc3[nH]cnc3C2c2cc3ccccn3n2)o1` (stereo not drawn), the AC50 is > 5 µM. Then `CC(C)(O)c1cc(C(=O)N2CCc3[nH]cnc3C2c2cc3ccccn3n2)no1` (stereo not drawn), with > 5 µM; and `CC(C)(O)c1nc(C(=O)N2CCc3[nH]cnc3C2c2cc3ccccn3n2)no1` (stereo not drawn), with > 5 µM; and `Cc1n[nH]cc1-c1nnc(C(=O)N2CCc3[nH]cnc3C2c2cc3c(C)cccn3n2)o1` (stereo not drawn), with 1 to 5 µM.

For the molecule `FC(F)c1cccn2nc(C3c4nc[nH]c4CCN3c3nnc(C4CC(F)(F)C4)o3)cc12` (stereo not drawn), the AC50 was in the range of 1 to 5 µM. Regarding `Fc1cccn2nc(C3c4nc[nH]c4CCN3c3nnc(C4CC(F)(F)C4)o3)cc12` (stereo not drawn), the AC50 was 1 to 5 µM.

For the molecule `FC1(F)CC(c2nnc(N3CCc4[nH]cnc4C3c3cc4c(C(F)(F)F)cccn4n3)o2)C1` (stereo not drawn), the AC50 was in the range of 1 to 5 µM. Under `CC1(c2nnc(N3CCc4[nH]cnc4C3c3cc4c(C(F)F)cccn4n3)o2)CC1` (stereo not drawn) stands 1 to 5 µM; under `CC(C)c1cccn2nc(C3c4nc[nH]c4CCN3c3cnccn3)cc12` (stereo not drawn), > 5 µM.

In the case of `FC1(F)CC(c2nnc(N3CCc4[nH]cnc4C3c3cc4c(Cl)cccn4n3)o2)C1` (stereo not drawn), the AC50 lay within 1 to 5 µM. Consider `CC(C)(F)c1nnc(N2CCc3[nH]cnc3C2c2cc3c(Cl)cccn3n2)o1` (stereo not drawn), for which the AC50 was > 5 µM. Take `CC(C)c1nnc(N2CCc3[nH]cnc3C2c2cc3c(C4CC4)cccn3n2)o1` (stereo not drawn): the AC50 was > 5 µM.

In the case of `CC(C)(F)c1nnc(N2CCc3[nH]cnc3C2c2cc3c(C4CC4)cccn3n2)o1` (stereo not drawn), the AC50 is > 5 µM.

As to `FC1(F)CC(c2nnc(N3CCc4[nH]cnc4C3c3cc4c(C5CC5)cccn4n3)o2)C1` (stereo not drawn), the AC50 was 1 to 5 µM.

As to `Cc1n[nH]cc1-c1nnc(C(=O)N2CCc3[nH]cnc3C2c2cc3c(F)cccn3n2)o1` (stereo not drawn), the AC50 was in the range of 1 to 5 µM. For `COc1cccn2nc(C3c4nc[nH]c4CCN3C(=O)c3nnc(-c4cnn(C)c4)o3)cc12` (stereo not drawn), the AC50 is 1 to 5 µM. Then `COc1cccn2nc(C3c4nc[nH]c4CCN3C(=O)c3oc(C(C)(C)O)nc3C(F)F)cc12` (stereo not drawn), with > 5 µM; and `Clc1cccn2nc(C3c4nc[nH]c4CCN3c3nnc(-c4ncccn4)o3)cc12` (stereo not drawn), with 1 to 5 µM; and `Fc1cccnc1-c1nnc(N2CCc3[nH]cnc3C2c2cc3c(C(F)F)cccn3n2)o1` (stereo not drawn), with 1 to 5 µM. Then `FC(F)c1cccn2nc(C3c4nc[nH]c4CCN3c3nnc(-c4ncccn4)o3)cc12` (stereo not drawn), with 1 to 5 µM; and `Fc1cccnc1-c1nnc(N2CCc3[nH]cnc3C2c2cc3c(C4CC4)cccn3n2)o1` (stereo not drawn) [listing 2 of 2 here], with 1 to 5 µM. Under `c1cnc(-c2nnc(N3CCc4[nH]cnc4C3c3cc4c(C5CC5)cccn4n3)o2)nc1` (stereo not drawn) stands 1 to 5 µM; under `Fc1cccn2nc(C3c4nc[nH]c4CCN3c3nnc(-c4ncccn4)o3)cc12` (stereo not drawn), 1 to 5 µM; under `Cc1cccn2nc(C3c4nc[nH]c4CCN3C(=O)c3cnc(C(C)(C)O)o3)cc12` (stereo not drawn), 1 to 5 µM. As for `FC(F)(F)c1cccc2cc(C3c4nc[nH]c4CCN3c3nnc(-c4cnccn4)o3)nn12` (stereo not drawn), the AC50 was 1 to 5 µM.

Turning to `Clc1cccc2cc(C3c4nc[nH]c4CCN3c3nnc(-c4cnccn4)o3)nn12` (stereo not drawn), the AC50 fell in the range of 1 to 5 µM. Under `Cc1cccc2cc(C3c4nc[nH]c4CCN3c3nnc(-c4cnccn4)o3)nn12` (stereo not drawn) [listing 2 of 2 here] stands 1 to 5 µM; under `O=C(c1cnc(-c2ccccn2)o1)N1CCc2[nH]cnc2C1c1cc2ccccn2n1` (stereo not drawn) [listing 2 of 2 here], 1 to 5 µM. Then `O=C(c1ccnn1-c1ccccn1)N1CCc2[nH]cnc2C1c1cc2ccccn2n1` (stereo not drawn), with 1 to 5 µM; and `CC(C)(O)c1cc(C(=O)N2CCc3[nH]cnc3C2c2cc3ccccn3n2)on1` (stereo not drawn), with 1 to 5 µM.

Consider `O=C(c1cnn(-c2ccccn2)c1Cl)N1CCc2[nH]cnc2C1c1cc2ccccn2n1` (stereo not drawn), for which the AC50 was in the range of 1 to 5 µM. Then `CC(C)c1nnc(N2CCc3[nH]cnc3C2c2cc3c(C(C)C)cccn3n2)o1` (stereo not drawn), with > 5 µM. In the case of `Fc1ncccc1-c1nnc(N2CCc3[nH]cnc3C2c2cc3c(C(F)(F)F)cccn3n2)o1` (stereo not drawn), the AC50 lay within 1 to 5 µM. Under `Fc1ncccc1-c1nnc(N2CCc3[nH]cnc3C2c2cc3ccccn3n2)o1` (stereo not drawn) [listing 2 of 2 here] stands 1 to 5 µM. Under `Fc1cccc(-c2nnc(N3CCc4[nH]cnc4C3c3cc4ccccn4n3)o2)n1` (stereo not drawn) stands 1 to 5 µM; under `Cc1ncccc1-c1nnc(N2CCc3[nH]cnc3C2c2cc3ccccn3n2)o1` (stereo not drawn), 1 to 5 µM; under `Cc1nnc(C(=O)N2CCc3[nH]cnc3C2c2cc3ccccn3n2)o1` (stereo not drawn) [listing 2 of 2 here], 1 to 5 µM.

On to `O=C(C1CN(CC(F)(F)F)C1)N1CCc2[nH]cnc2C1c1cc2ccccn2n1` (stereo not drawn), for which the AC50 was > 5 µM. Under `Fc1ncccc1-c1nnc(N2CCc3[nH]cnc3C2c2cc3c(C(F)F)cccn3n2)o1` (stereo not drawn) [listing 2 of 2 here] stands 1 to 5 µM. As to `FC(F)c1cccn2nc(C3c4nc[nH]c4CCN3c3nnc(-c4cccnc4)o3)cc12` (stereo not drawn), the AC50 is 1 to 5 µM. Then `c1cncc(-c2nnc(N3CCc4[nH]cnc4C3c3cc4c(C5CC5)cccn4n3)o2)c1` (stereo not drawn) [listing 2 of 2 here], with 1 to 5 µM; and `c1cnnc(-c2nnc(N3CCc4[nH]cnc4C3c3cc4c(C5CC5)cccn4n3)o2)c1` (stereo not drawn), with 1 to 5 µM. Then `Fc1ncccc1-c1nnc(N2CCc3[nH]cnc3C2c2cc3c(C4CC4)cccn3n2)o1` (stereo not drawn) [listing 2 of 2 here], with 1 to 5 µM; and `Cc1cccn2nc(C3c4nc[nH]c4CCN3c3nnc(-c4cccnc4)o3)cc12` (stereo not drawn), with 1 to 5 µM; and `Cn1cc(N2CCc3[nH]cnc3C2c2cc3c(F)cccn3n2)cn1` (stereo not drawn), with 1 to 5 µM.

With `O=C(c1cn[nH]c1)N1CCc2[nH]cnc2C1c1cc2ccccn2n1` (stereo not drawn), the AC50 was > 5 µM. Take `COc1cccn2nc(C3c4nc[nH]c4CCN3C(=O)c3ocnc3C(F)F)cc12` (stereo not drawn): the AC50 was 1 to 5 µM. Then `Cc1cccn2nc(C3c4nc[nH]c4CCN3C(=O)c3ocnc3C(F)F)cc12` (stereo not drawn), with 1 to 5 µM; and `CCn1cnnc1C(=O)N1CCc2[nH]cnc2C1c1cc2ccccn2n1` (stereo not drawn), with 1 to 5 µM.

For `O=C(c1ocnc1C(F)F)N1CCc2[nH]cnc2C1c1cc2c(Cl)cccn2n1` (stereo not drawn), the AC50 was 1 to 5 µM. Then `NC(=O)c1ncoc1C(=O)N1CCc2[nH]cnc2C1c1cc2ccccn2n1` (stereo not drawn), with 1 to 5 µM; and `O=C(c1ccn[nH]1)N1CCc2[nH]cnc2C1c1cc2ccccn2n1` (stereo not drawn), with > 5 µM; and `O=C(c1cnco1)N1CCc2[nH]cnc2C1c1cc2ccccn2n1` (stereo not drawn), with 1 to 5 µM. `O=C(c1cnn(CC(F)(F)F)c1Cl)N1CCc2[nH]cnc2C1c1cc2ccccn2n1` (stereo not drawn): the AC50 lay in the range of 1 to 5 µM.

In the case of `O=C(c1cn[nH]c1Cl)N1CCc2[nH]cnc2C1c1cc2ccccn2n1` (stereo not drawn) [listing 2 of 2 here], the concentration at half-maximal activity (AC50) was in the range of 1 to 5 µM. Under `Fc1ccc(-c2nnc(N3CCc4[nH]cnc4C3c3cc4ccccn4n3)o2)nc1` (stereo not drawn) stands 1 to 5 µM; under `Cc1nc(C(C)O)oc1C(=O)N1CCc2[nH]cnc2C1c1cc2ccccn2n1` (stereo not drawn), 1 to 5 µM; under `Cc1cccn2nc(C3c4nc[nH]c4CCN3C(=O)c3oc(C(C)O)nc3C(F)F)cc12` (stereo not drawn), 1 to 5 µM. Turning to `CC(O)c1nc(C(F)F)c(C(=O)N2CCc3[nH]cnc3C2c2cc3c(Cl)cccn3n2)o1` (stereo not drawn), the AC50 is 1 to 5 µM. `Cc1nc(C(C)O)oc1C(=O)N1CCc2[nH]cnc2C1c1cc2c(F)cccn2n1` (stereo not drawn): the AC50 was in the range of 1 to 5 µM.
